From the NIST ThermoML archive (doi:10.1021/je300953u) come the findings set out here.

Numbers after ± are expanded uncertainties.

The nature of this data set: mn = molality of the nth substance listed, in mol/kg. The following applies: 101 kPa, Liquid, Vibrating tube method.

The term mass density denotes the mass of a sample divided by its volume. `CCn1cc[n+](C)c1.[Br-]` [1-ethyl-3-methylimidazolium bromide] + O: the mass density reads like this: (298.15 K, m1 = 0.025) 998.38 ± 0.29 kg/m3; (298.15 K, m1 = 0.055) 999.96 ± 0.29 kg/m3; (308.15 K, m1 = 0.025) 995.33 ± 0.29 kg/m3; (308.15 K, m1 = 0.055) 996.89 ± 0.29 kg/m3.
